# Measured values reported in ChEMBL document CHEMBL3046129, “Synthesis and pharmacological evaluation of N-(6-chlorobenzo[d]thiazol-2-yl)hydrazine carboxamide derivatives of benzothiazole” (Med Chem Res, 2013).
# Legend:
# [1] = system: Rattus norvegicus; test: Potency index, Rattus norvegicus (rat)io of ibuprofen anti-inflammatory activity to compound anti-inflammatory activity in Wistar Rattus norvegicus (rat) at 70 mg/kg, po administered 1 hr prior to carrageenan-challenge measured after 4 hr by plethysmometer analysis; format: functional
# [2] = system: Rattus norvegicus; test: Anti-inflammatory activity in Wistar Rattus norvegicus (rat) assessed as inhibition of carrageenan-induced paw edema at 70 mg/kg, po administered 1 hr prior to carrageenan-challenge measured after 4 hr by plethysmometer analysis; format: functional
# [3] = system: Rattus norvegicus; test: Anti-inflammatory activity in Wistar Rattus norvegicus (rat) assessed as inhibition of carrageenan-induced paw edema at 70 mg/kg, po administered 1 hr prior to carrageenan-challenge measured after 3 hr by plethysmometer analysis; format: functional
# [4] = system: Mus musculus; test: Analgesic activity in Swiss albino Mus musculus (mouse) assessed as inhibition of pain at 70 mg/kg, po measured after 4 hr by tail immersion method; format: functional
# [5] = system: Rattus norvegicus; test: Effect on lipid peroxidation in Wistar Rattus norvegicus (rat) gastric mucosa assessed as malondialdehyde content at 210 mg/kg, po measured per 100 mg of tissue by UV spectrophotometric analysis (reference value: 3.26 +/-0.01 nmol); format: ADME, organism-based; parameters: dose 210 mg/kg, route oral; details: in vivo
# [6] = system: Rattus norvegicus; test: Gastrointestinal toxicity in Wistar Rattus norvegicus (rat) assessed as ulcerogenicity index at 210 mg/kg, po (reference value: 0 No unit); format: organism-based; parameters: dose 210 mg/kg, route oral; details: in vivo
# [7] = system: Mus musculus; test: Analgesic activity in Swiss albino Mus musculus (mouse) assessed as time required for tail withdrawal at 70 mg/kg, po measured after 4 hr by tail immersion method; format: functional
# [8] = system: Mus musculus; test: Potency index, ratio of ibuprofen analgesic activity to compound analgesic in Swiss albino Mus musculus (mouse) at 70 mg/kg, po measured after 4 hr by tail immersion method; format: functional
# [9] = system: Rattus norvegicus; test: Hepatotoxicity in Wistar albino Rattus norvegicus (rat) assessed as serum alkaline phosphatase activity at 210 mg/kg, po qd for 15 days; format: toxicity, organism-based; parameters: dose 210 mg/kg, route oral; details: in vivo, 360 h
# [10] = system: Rattus norvegicus; test: Hepatotoxicity in Wistar albino Rattus norvegicus (rat) assessed as serum glutamate pyruvate transaminase activity at 210 mg/kg, po qd for 15 days (reference value: 32.46 +/-0.76 units/ml); format: toxicity, organism-based; parameters: dose 210 mg/kg, route oral; details: in vivo, 360 h
# [11] = system: Rattus norvegicus; test: Hepatotoxicity in Wistar albino Rattus norvegicus (rat) assessed as serum total albumin level at 210 mg/kg, po qd for 15 days (reference value: 1.63 +/-0.02 g/dl); format: toxicity, organism-based; parameters: dose 210 mg/kg, route oral; details: in vivo, 360 h
# [12] = system: Rattus norvegicus; test: Hepatotoxicity in Wistar albino Rattus norvegicus (rat) assessed as hepatocyte necrosis and degeneRattus norvegicus (rat)ion at 210 mg/kg, po qd for 15 days measured after 24 hr of last dosage of drug by hematoxylin-eosin staining based light microscopy; format: toxicity, organism-based; parameters: dose 210 mg/kg, route oral; details: hepatocytes
# [13] = system: Rattus norvegicus; test: Hepatotoxicity in Wistar albino Rattus norvegicus (rat) assessed as serum total protein level at 210 mg/kg, po qd for 15 days (reference value: 1.72 +/-0.02 g/dl); format: toxicity, organism-based; parameters: dose 210 mg/kg, route oral; details: in vivo, 360 h
# [14] = system: Rattus norvegicus; test: Hepatotoxicity in Wistar albino Rattus norvegicus (rat) assessed as serum glutamate oxaloacetate transaminase activity at 210 mg/kg, po qd for 15 days (reference value: 143.71 +/-1.10 units/ml); format: toxicity, organism-based; parameters: dose 210 mg/kg, route oral; details: in vivo, 360 h
# [15] = system: Rattus norvegicus; test: Hepatotoxicity in Wistar albino Rattus norvegicus (rat) assessed as hepatocyte with clearing of cytoplasm and compression of sinusoidal spaces at 210 mg/kg, po qd for 15 days measured after 24 hr of last dosage of drug by hematoxylin-eosin staining based light microscopy; format: toxicity, organism-based, Sinusoidal space; parameters: dose 210 mg/kg, route oral; details: hepatocytes
Activity [5] [nmol],Compound,Ratio [1],inhibition in vivo at 70 mg/kg [2] [%],inhibition in vivo at 70 mg/kg [3] [%],inhibition in vivo at 70 mg/kg [4] [%],UI [6],Time [7] [s],Ratio [8],Activity [9],Activity [10] [U/ml],Activity [11] [g/dL],Activity [12],Activity [13] [g/dL],Activity [14] [U/ml],Activity [15]
–,O=[N+]([O-])c1ccc(-c2nn3c(Nc4nc5ccc(Cl)cc5s4)nnc3s2)cc1,0.8,66.7,53.3,–,–,–,–,–,–,–,–,–,–,–
4.47,Clc1ccc2nc(Nc3nnc(-c4ccccc4)o3)sc2c1,1.06,88.3,78.8,61.1,1.667,1.45,0.74,–,–,–,–,–,–,–
–,Clc1ccc2nc(Nc3nnc(-c4ccccc4Cl)o3)sc2c1,0.64,53.2,53,–,–,–,–,–,–,–,–,–,–,–
3.29,Clc1ccc(-c2nnc(Nc3nc4ccc(Cl)cc4s3)o2)c(Cl)c1,1.05,87.1,80,79,0.917,2.22,0.96,Non-toxic,30.74,1.7,Non-toxic,1.75,138.42,Toxic
–,Cc1ccccc1-c1nnc(Nc2nc3ccc(Cl)cc3s2)o1,0.45,37.7,23.9,–,–,–,–,–,–,–,–,–,–,–
–,CC(=O)Oc1ccccc1-c1nnc(Nc2nc3ccc(Cl)cc3s2)o1,0.61,50.8,31,–,–,–,–,–,–,–,–,–,–,–
9.1,Clc1ccc2nc(Nc3nnc(Oc4ccccc4)o3)sc2c1,1.07,88.8,74.2,52,1.083,1.9,0.63,–,–,–,–,–,–,–
–,CC.O=[N+]([O-])c1ccc(-c2nnc(Nc3nc4ccc(Cl)cc4s3)o2)cc1,0.39,32.5,19.2,–,–,–,–,–,–,–,–,–,–,–
9.04,Sc1nnc(Nc2nc3ccc(Cl)cc3s2)o1,0.84,69.8,61.7,72.3,2.166,2.24,0.88,–,–,–,–,–,–,–
–,Clc1ccc2nc(Nc3nnc4sc(-c5ccccc5Cl)nn34)sc2c1,0.61,50.8,41.7,–,–,–,–,–,–,–,–,–,–,–
5.74,Clc1ccc(-c2nn3c(Nc4nc5ccc(Cl)cc5s4)nnc3s2)c(Cl)c1,1.08,89.6,80,75.4,0.925,2.21,0.92,–,–,–,–,–,–,–
7.44,Cc1ccccc1-c1nn2c(Nc3nc4ccc(Cl)cc4s3)nnc2s1,1.07,88.8,77.5,76.9,1.583,2.83,0.93,–,–,–,–,–,–,–
–,CC(=O)Oc1ccccc1-c1nn2c(Nc3nc4ccc(Cl)cc4s3)nnc2s1,0.24,20.6,10,–,–,–,–,–,–,–,–,–,–,–
3.04,Clc1ccc2nc(Nc3nnc4sc(Oc5ccccc5)nn34)sc2c1,1.08,89.7,78.3,75,0.666,2.17,0.91,Non-toxic,28.33,1.74,Non-toxic,1.79,131.18,Toxic
–,Clc1ccc2nc(Nc3nnc4sc(-c5ccccc5)nn34)sc2c1,0.7,57.9,48.3,–,–,–,–,–,–,–,–,–,–,–
7.51,CC(C)Cc1ccc(C(C)C(=O)O)cc1 (stereo not given) [IBUPROFEN],–,82.7,78.2,73.5,2.315,2.6,–,Toxic,34.26,1.71,–,1.74,140.14,–
